Legend:
Experiment in all cases: biochemical
Format in all cases: biochemical
[1] = target: T1, 382 unique human kinases (Homo sapiens, UniProt Q86UX6); settings: STK32C/YANK3, 10 uM; for remaining activity at 10 µM: read-out: % Enzyme Activity (relative to DMSO controls)
T1 construct: purchased Reaction Biology (HotSpot contract assay)

[2] = target: T2, 382 unique human kinases (Homo sapiens, UniProt P52564); settings: MKK6, 10 uM; for remaining activity at 10 µM: read-out: % Enzyme Activity (relative to DMSO controls)
T2 construct: purchased Reaction Biology (HotSpot contract assay)
T2 sequence (P52564 1-334): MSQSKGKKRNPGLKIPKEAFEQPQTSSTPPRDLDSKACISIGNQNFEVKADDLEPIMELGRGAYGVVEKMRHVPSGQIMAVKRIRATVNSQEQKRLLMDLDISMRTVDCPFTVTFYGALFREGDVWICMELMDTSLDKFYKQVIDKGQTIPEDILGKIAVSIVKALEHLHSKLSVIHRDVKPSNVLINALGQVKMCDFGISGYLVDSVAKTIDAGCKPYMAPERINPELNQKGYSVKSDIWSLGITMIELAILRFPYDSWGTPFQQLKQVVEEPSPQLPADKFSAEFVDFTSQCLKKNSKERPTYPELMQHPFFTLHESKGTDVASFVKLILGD

[3] = target: T3, 382 unique human kinases (Homo sapiens, UniProt P00533, G719C); settings: kinase EGFR (G719C), compound 10 uM; for remaining activity at 10 µM: read-out: % Enzyme Activity (relative to DMSO controls)
T3 construct: purchased Reaction Biology (HotSpot contract assay)

[4] = target: T4, 382 unique human kinases (Homo sapiens, UniProt Q9UPE1); settings: MSSK1/STK23, 10 uM; for remaining activity at 10 µM: read-out: % Enzyme Activity (relative to DMSO controls)
T4 construct: purchased Reaction Biology (HotSpot contract assay)
T4 sequence (Q9UPE1 whole entry): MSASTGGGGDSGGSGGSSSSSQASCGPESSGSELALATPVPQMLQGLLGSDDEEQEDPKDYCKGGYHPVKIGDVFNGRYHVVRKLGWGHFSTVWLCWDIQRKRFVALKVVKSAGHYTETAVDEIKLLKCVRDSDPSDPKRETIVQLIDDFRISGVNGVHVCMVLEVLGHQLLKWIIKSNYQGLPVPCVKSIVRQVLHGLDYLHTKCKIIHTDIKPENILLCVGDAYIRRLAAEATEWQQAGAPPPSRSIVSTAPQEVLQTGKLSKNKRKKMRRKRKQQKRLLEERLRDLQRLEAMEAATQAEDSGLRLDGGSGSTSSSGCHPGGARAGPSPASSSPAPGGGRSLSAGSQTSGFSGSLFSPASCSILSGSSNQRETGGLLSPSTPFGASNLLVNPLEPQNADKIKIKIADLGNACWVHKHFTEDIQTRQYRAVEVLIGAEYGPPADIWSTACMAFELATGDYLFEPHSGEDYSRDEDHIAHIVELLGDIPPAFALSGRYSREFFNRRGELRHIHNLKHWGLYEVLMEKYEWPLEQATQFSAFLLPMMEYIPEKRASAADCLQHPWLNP

[5] = target: T5, 382 unique human kinases (Homo sapiens, UniProt P35968); settings: kinase KDR/VEGFR2, compound 10 uM; for remaining activity at 10 µM: read-out: % Enzyme Activity (relative to DMSO controls)
T5 construct: purchased Reaction Biology (HotSpot contract assay)

[6] = target: T6, 382 unique human kinases (Homo sapiens, UniProt P07949, L790F); settings: RET (L790F), 10 uM; for remaining activity at 10 µM: read-out: % Enzyme Activity (relative to DMSO controls)
T6 construct: purchased Reaction Biology (HotSpot contract assay)
T6 sequence (P07949 29-1114 L790F): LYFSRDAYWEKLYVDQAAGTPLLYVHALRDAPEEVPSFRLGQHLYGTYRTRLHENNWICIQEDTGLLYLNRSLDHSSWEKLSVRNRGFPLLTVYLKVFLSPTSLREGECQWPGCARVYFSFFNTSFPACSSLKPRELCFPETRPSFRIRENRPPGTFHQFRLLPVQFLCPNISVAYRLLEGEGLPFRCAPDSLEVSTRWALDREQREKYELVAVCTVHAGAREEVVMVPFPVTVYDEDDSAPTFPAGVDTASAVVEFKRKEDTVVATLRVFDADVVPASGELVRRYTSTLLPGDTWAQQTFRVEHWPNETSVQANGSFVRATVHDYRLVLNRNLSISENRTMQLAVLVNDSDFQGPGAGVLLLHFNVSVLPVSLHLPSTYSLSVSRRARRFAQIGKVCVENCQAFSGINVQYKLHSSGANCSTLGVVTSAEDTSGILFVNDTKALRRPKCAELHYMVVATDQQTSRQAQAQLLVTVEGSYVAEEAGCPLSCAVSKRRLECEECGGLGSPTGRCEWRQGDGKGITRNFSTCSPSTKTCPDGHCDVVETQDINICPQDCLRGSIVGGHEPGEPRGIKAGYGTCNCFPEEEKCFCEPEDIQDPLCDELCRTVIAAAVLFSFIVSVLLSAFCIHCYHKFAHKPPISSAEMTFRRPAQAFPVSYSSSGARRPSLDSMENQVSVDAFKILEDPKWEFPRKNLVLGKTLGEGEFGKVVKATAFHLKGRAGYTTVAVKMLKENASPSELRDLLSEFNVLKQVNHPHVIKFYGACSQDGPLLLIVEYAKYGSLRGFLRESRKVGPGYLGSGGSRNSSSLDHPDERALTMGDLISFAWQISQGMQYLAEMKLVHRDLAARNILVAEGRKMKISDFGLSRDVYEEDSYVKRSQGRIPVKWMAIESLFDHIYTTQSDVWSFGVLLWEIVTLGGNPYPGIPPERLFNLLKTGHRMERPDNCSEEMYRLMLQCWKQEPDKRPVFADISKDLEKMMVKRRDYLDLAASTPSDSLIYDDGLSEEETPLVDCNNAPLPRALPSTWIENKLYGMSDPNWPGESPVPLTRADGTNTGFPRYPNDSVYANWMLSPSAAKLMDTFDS

[7] = target: T7, 382 unique human kinases (Homo sapiens, UniProt Q9Y243, G171R); settings: AKT3 (G171R), 10 uM; for remaining activity at 10 µM: read-out: % Enzyme Activity (relative to DMSO controls)
T7 construct: purchased Reaction Biology (HotSpot contract assay)

[8] = target: T8, 382 unique human kinases (Homo sapiens, UniProt P10721, T670I); settings: c-Kit (T670I); 10 uM; read-out: % Enzyme Activity (relative to DMSO controls)
T8 construct: purchased Reaction Biology (HotSpot contract assay)
T8 sequence (P10721 26-976 T670I): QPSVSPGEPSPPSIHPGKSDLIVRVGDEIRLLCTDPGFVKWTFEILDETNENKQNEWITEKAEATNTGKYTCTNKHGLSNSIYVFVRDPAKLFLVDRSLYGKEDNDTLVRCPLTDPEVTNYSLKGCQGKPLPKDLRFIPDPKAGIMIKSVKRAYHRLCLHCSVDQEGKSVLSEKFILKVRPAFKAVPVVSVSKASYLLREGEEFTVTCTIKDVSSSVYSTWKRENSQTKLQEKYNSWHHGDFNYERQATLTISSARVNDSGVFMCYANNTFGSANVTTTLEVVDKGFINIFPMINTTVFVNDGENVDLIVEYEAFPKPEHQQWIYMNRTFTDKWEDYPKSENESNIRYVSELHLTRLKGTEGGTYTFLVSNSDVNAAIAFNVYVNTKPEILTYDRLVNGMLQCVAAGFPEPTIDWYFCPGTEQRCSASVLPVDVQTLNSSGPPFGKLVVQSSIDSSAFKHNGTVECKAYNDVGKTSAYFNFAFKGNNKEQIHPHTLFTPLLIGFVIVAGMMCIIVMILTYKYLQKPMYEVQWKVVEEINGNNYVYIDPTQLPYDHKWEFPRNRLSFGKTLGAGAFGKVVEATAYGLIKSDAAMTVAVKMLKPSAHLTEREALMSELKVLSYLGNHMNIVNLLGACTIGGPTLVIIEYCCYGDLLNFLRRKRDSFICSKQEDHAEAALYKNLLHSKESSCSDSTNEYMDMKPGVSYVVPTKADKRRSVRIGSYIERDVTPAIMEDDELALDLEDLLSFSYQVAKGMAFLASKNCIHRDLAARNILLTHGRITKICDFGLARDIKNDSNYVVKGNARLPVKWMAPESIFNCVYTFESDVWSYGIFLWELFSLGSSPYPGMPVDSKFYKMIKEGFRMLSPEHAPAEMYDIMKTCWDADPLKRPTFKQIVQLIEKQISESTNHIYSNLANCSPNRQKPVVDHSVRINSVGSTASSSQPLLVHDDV

[9] = target: T9, 382 unique human kinases (Homo sapiens, UniProt Q8TD19); settings: NEK9, 10 uM; for remaining activity at 10 µM: read-out: % Enzyme Activity (relative to DMSO controls)
T9 construct: purchased Reaction Biology (HotSpot contract assay)
T9 sequence (Q8TD19 1-979): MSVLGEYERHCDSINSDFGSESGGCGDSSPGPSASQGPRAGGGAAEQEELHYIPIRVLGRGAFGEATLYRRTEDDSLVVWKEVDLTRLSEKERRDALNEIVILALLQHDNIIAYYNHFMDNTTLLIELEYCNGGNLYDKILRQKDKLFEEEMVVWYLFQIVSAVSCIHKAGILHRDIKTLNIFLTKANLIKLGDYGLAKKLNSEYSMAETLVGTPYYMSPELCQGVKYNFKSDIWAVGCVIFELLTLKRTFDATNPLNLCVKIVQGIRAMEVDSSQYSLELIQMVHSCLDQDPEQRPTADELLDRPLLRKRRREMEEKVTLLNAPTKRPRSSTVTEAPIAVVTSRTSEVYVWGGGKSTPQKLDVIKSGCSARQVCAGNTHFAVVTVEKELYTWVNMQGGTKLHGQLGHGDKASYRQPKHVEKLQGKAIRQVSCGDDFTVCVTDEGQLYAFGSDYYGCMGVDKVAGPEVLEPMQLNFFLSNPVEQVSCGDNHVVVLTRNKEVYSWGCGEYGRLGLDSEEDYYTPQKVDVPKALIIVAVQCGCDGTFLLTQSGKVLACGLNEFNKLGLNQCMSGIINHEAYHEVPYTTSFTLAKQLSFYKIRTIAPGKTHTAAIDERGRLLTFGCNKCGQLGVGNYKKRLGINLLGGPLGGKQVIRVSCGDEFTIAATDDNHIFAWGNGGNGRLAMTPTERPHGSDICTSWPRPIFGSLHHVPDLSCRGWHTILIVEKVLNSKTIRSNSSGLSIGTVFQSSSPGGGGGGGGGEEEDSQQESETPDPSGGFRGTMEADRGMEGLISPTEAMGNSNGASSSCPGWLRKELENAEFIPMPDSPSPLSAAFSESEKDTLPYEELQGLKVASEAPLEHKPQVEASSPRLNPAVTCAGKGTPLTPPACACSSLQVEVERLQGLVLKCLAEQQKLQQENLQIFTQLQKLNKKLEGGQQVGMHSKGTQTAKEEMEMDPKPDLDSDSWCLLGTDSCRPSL

[10] = target: T10, 382 unique human kinases (Homo sapiens, UniProt Q15120); settings: PDK3/PDHK3, [ATP] 30 µM, compound 10 uM; for remaining activity at 10 µM: read-out: % Enzyme Activity (relative to DMSO controls)
T10 construct: purchased Reaction Biology (HotSpot contract assay)

[11] = target: T11, 382 unique human kinases (Homo sapiens, UniProt Q14012); settings: CAMK1a, 10 uM; for remaining activity at 10 µM: read-out: % Enzyme Activity (relative to DMSO controls)
T11 construct: purchased Reaction Biology (HotSpot contract assay)

[12] = target: T12, 382 unique human kinases (Homo sapiens, UniProt Q16654); settings: PDK4/PDKH4, [ATP] 30 µM
T12 construct: purchased Reaction Biology (HotSpot contract assay)

[13] = target: T13, 382 unique human kinases (Homo sapiens, UniProt O75914); settings: PAK3, 10 uM; for remaining activity at 10 µM: read-out: % Enzyme Activity (relative to DMSO controls)
T13 construct: purchased Reaction Biology (HotSpot contract assay)
T13 sequence (O75914 whole entry): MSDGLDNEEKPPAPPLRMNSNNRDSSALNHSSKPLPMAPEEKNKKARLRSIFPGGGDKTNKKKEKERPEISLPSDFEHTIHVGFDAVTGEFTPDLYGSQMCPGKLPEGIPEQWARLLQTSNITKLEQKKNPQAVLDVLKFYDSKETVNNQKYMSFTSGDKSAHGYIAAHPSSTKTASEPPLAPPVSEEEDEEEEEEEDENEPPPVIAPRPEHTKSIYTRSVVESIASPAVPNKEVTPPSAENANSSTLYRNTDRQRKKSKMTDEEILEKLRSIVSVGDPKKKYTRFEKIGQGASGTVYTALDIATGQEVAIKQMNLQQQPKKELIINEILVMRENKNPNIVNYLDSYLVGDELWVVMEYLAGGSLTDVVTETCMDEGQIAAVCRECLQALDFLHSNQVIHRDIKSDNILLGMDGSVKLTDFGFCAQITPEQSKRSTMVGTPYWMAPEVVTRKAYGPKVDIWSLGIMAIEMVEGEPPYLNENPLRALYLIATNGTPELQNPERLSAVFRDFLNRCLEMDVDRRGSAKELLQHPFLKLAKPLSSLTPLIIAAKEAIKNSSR

[14] = target: T14, 382 unique human kinases (Homo sapiens, UniProt P10721, N822K/V560G); settings: c-Kit (V560G/N822K), [ATP] 5 µM, compound 10 uM; for remaining activity at 10 µM: read-out: % Enzyme Activity (relative to DMSO controls)
T14 construct: purchased Reaction Biology (HotSpot contract assay)
T14 sequence (P10721 26-976 V560G/N822K): as the sequence (P10721 26-976 T670I) above, with V535G, I645T, N797K counted along it

[15] = target: T15, 382 unique human kinases (Homo sapiens, UniProt P00533, DEL746-750); settings: EGFR (d746-750), 10 uM; for remaining activity at 10 µM: read-out: % Enzyme Activity (relative to DMSO controls)
T15 construct: purchased Reaction Biology (HotSpot contract assay)

[16] = target: T16, 382 unique human kinases (Homo sapiens, UniProt O95819); settings: HGK/MAP4K4, 10 uM; for remaining activity at 10 µM: read-out: % Enzyme Activity (relative to DMSO controls)
T16 construct: purchased Reaction Biology (HotSpot contract assay)

[17] = target: T17, 382 unique human kinases (Homo sapiens, UniProt P00519); settings: ABL1, [ATP] 40 µM
T17 construct: purchased Reaction Biology (HotSpot contract assay)
T17 sequence (P00519 whole entry): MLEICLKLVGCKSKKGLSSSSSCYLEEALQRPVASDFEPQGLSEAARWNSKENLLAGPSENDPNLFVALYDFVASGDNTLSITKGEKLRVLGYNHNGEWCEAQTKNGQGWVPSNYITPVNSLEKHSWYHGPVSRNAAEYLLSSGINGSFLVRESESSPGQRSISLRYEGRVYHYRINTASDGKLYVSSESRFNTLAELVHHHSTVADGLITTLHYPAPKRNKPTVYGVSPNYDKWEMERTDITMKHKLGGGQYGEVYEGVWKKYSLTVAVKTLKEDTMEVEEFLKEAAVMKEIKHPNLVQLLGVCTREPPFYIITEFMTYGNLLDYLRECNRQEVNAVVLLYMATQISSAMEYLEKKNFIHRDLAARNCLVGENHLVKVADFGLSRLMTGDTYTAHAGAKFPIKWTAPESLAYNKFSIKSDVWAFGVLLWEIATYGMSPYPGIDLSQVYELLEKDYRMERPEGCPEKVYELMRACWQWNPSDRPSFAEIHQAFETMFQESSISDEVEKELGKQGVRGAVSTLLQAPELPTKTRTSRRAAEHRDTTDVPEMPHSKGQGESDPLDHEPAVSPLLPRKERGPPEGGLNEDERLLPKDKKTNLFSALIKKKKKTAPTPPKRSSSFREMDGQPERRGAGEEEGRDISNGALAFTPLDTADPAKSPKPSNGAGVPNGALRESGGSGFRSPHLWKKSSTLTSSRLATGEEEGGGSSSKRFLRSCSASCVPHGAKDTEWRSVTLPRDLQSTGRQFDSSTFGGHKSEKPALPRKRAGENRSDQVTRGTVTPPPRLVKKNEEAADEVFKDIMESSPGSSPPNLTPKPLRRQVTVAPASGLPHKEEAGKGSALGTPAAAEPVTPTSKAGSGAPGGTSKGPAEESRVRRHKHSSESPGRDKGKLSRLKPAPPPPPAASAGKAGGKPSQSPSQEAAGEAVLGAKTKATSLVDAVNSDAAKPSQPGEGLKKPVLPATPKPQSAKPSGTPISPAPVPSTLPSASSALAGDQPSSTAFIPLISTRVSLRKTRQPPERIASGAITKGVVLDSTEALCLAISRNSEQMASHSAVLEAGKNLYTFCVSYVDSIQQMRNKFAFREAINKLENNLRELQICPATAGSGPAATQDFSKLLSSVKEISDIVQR

[18] = target: T18, 382 unique human kinases (Homo sapiens, UniProt P12931); settings: c-Src, [ATP] 15 µM
T18 construct: purchased Reaction Biology (HotSpot contract assay)
T18 sequence (P12931 whole entry): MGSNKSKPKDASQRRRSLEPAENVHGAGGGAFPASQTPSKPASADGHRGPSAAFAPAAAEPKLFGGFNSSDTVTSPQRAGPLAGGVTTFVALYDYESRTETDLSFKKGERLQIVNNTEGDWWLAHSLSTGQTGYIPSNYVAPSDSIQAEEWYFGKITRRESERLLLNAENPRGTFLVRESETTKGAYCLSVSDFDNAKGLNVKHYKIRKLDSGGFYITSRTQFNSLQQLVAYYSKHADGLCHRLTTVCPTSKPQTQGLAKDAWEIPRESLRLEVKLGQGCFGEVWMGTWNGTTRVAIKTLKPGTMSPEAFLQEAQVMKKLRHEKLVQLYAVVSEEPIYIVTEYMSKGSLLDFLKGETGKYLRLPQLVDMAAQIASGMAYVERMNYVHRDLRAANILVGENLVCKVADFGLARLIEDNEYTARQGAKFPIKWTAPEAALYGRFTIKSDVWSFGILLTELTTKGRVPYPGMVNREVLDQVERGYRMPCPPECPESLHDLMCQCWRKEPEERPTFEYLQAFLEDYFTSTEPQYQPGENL

[19] = compound 1 uM, read-out: % Enzyme Activity (relative to DMSO controls)
[20] = compound 10 uM, read-out: % Enzyme Activity (relative to DMSO controls)

| SMILES | remaining activity at 10 µM [1] [%] | remaining activity at 10 µM [2] [%] | remaining activity at 10 µM [3] [%] | remaining activity at 10 µM [4] [%] | remaining activity at 10 µM [5] [%] | remaining activity at 10 µM [6] [%] | remaining activity at 10 µM [7] [%] | remaining activity at 10 µM [8] [%] | remaining activity at 10 µM [9] [%] | remaining activity at 10 µM [10] [%] | remaining activity at 10 µM [11] [%] | remaining activity at 10 µM [12, 20] [%] | remaining activity at 10 µM [13] [%] | remaining activity at 10 µM [14] [%] | remaining activity at 10 µM [15] [%] | remaining activity at 10 µM [16] [%] | remaining activity at 10 µM [18, 20] [%] | other results |
| --- | --- | --- | --- | --- | --- | --- | --- | --- | --- | --- | --- | --- | --- | --- | --- | --- | --- | --- |
| CC(C)c1cc(-c2n[nH]c(=O)n2-c2ccc3c(ccn3C)c2)c(O)cc1O [Ganetespib (STA9090)] | 109 | 72.9 | 84.6 | 73.6 | 88.7 | 68.1 | 67.1 | 67.1 | 62.5 |  |  |  |  |  |  |  |  |  |
| CC(C)c1cc(-c2n[nH]c(=O)n2-c2ccc3c(ccn3C)c2)c(O)cc1O [Ganetespib] |  |  |  |  |  |  |  |  |  | 22.3 | 91.4 | 6.83 | 98.1 | 41.8 | 91.8 | 98.6 | 9.14 | remaining activity at 1 µM [12, 19]: 26.8%; remaining activity at 1 µM [17, 19]: 18.3%; remaining activity at 1 µM [18, 19]: 38.8% |
| CCNC(=O)c1noc(-c2cc(C(C)C)c(O)cc2O)c1-c1ccc(CN2CCOCC2)cc1 [Luminespib (AUY-922)] | 69.9 | 100 | 100 | 95.8 | 101 | 91.5 | 98.6 | 84.5 | 73 |  |  |  |  |  |  |  |  | % Enzyme Activity (relative to DMSO controls) [1]: 69.42%; % Enzyme Activity (relative to DMSO controls) [2]: 98.81%; % Enzyme Activity (relative to DMSO controls) [3]: 99.10%; % Enzyme Activity (relative to DMSO controls) [4]: 95.48%; % Enzyme Activity (relative to DMSO controls) [5]: 99.89%; % Enzyme Activity (relative to DMSO controls) [6]: 91.09%; % Enzyme Activity (relative to DMSO controls) [7]: 93.37%; % Enzyme Activity (relative to DMSO controls) [9]: 72.56% |
| CCNC(=O)c1noc(-c2cc(C(C)C)c(O)cc2O)c1-c1ccc(CN2CCOCC2)cc1 [Luminespib] |  |  |  |  |  |  |  |  |  | 76.8 | 109 | 29.9 | 108 | 76.2 | 94 | 110 | 36.4 | % Enzyme Activity (relative to DMSO controls) [10]: 75.85%; % Enzyme Activity (relative to DMSO controls) [11]: 103.58%; % Enzyme Activity (relative to DMSO controls) ([12]; compound 10 uM): 27.75%; % Enzyme Activity (relative to DMSO controls) [13]: 107.82%; % Enzyme Activity (relative to DMSO controls) [14]: 75.80%; % Enzyme Activity (relative to DMSO controls) [15]: 93.74%; % Enzyme Activity (relative to DMSO controls) [16]: 108.63%; % Enzyme Activity (relative to DMSO controls) ([17]; compound 10 uM): 6.22%; remaining activity at 10 µM [17, 20]: 6.93%; % Enzyme Activity (relative to DMSO controls) ([18]; compound 10 uM): 33.43% |

— PMC8550792, “Evolution of kinase polypharmacology across HSP90 drug discovery” (Cell Chemical Biology, 2021)
